Consider four compounds from patent publication US9708314B2, “Heterocyclic amide compound” (NISSAN CHEMICAL INDUSTRIES, LTD., priority 2013, dated 2017).

In series [1] the test system is Echinochloa crus-galli var. crus-galli. The series is described as follows: Test Example 3: herbicidal effect by application to foliage (Wagner pot, water depth 0.1-0.5 cm). Conditions: Nineteenth Table; application to foliage; application herbicide amount 320 g/ha. Type of series: in vivo. The essentials:
(§1)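 Scores (0–5) reflect herbicidal ratio three weeks after a foliar spray: 0 is 5% or less, 5 is 90% or more. Plants had grown 14 days in alluvial soil pots in a 25–30 °C greenhouse before treatment with water-diluted emulsion at a set g/ha.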

The subject of the next series is Leptochloa chinensis. The description is as above. It is filed as in vivo. The note with it: Nineteenth Table; application to foliage; application herbicide amount 320 g/ha. In a few lines:
as §1

Another series has as its system Cyperus difformis. The series is described as above. It is filed as in vivo. The note with it: Nineteenth Table; application to foliage; application herbicide amount 320 g/ha. In a few lines: as §1
Series [2] has as its system Echinochloa oryzacola Vasing. The series is described as follows: Test Example 1: herbicidal activity, application before weed generation in submerged conditions. Type of series: in vivo. The note with it: Application herbicide amount 320 g/ha; Seventeenth Table. In a few lines:
(§2)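 Rating, on a six-step scale from almost no effect (0) to almost completely withered (5), was made three weeks after pre-emergence treatment. Treatment was surface application to flooded pots at g/ha rates, with plants kept at 25° C. to 30° C.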

A further series has as its system Scirpus juncoides. Described as above. Conditions: Application herbicide amount 320 g/ha; Seventeenth Table. Type of series: in vivo. In a few lines:
as §2

Another series concerns Monochoria vaginalis. The series is described as above. It is filed as in vivo. Conditions: Application herbicide amount 320 g/ha; Seventeenth Table. The essentials:
as §2

`COCc1nnc2c(C(=O)Nc3nnnn3C)ccc(C(F)(F)F)n12` [2-010, 3-(Methoxymethyl)-N-(1-methyl-1H-tetrazol-5-yl)-5-(trifluoromethyl)-[1,2,4]triazol o[4,3-a]pyridine-8-carboxamide]: the melting point was in the range of 205 to 209 °C. In series [1], the “H (herbicidal effect grade)” value is 5 (Herbicidal ratio of 90% or more (almost completely withered)). Further, the “D (herbicidal effect grade)” value in the series with Leptochloa chinensis is 5 (Herbicidal ratio of 90% or more (almost completely withered)). In the series with Cyperus difformis, the “E (herbicidal effect grade)” value was 5 (Herbicidal ratio of 90% or more (almost completely withered)). For the same compound, the “A: Echinochloa oryzicola Vasing. (herbicidal effect grade)” value in series [2] is 5 (Herbicidal ratio of 90% or more (almost completely withered)). The “B: Scirpus juncoides (herbicidal effect grade)” value (“B: Scirpus juncoides” for short) in the series with Scirpus juncoides was 5 (Herbicidal ratio of 90% or more (almost completely withered)). In addition, the “C: Monochoria vaginalis (herbicidal effect grade)” value (from here on “C: Monochoria vaginalis”) in the series on Monochoria vaginalis is 4 (Herbicidal ratio of 70% or more and less than 90%).
On to `CC(=O)OCc1nnc2c(C(=O)Nc3nnc(C)o3)ccc(C(F)(F)F)n12` [1-062], for which the “H (herbicidal effect grade)” value in series [1] is 5 (Herbicidal ratio of 90% or more (almost completely withered)). Besides, in the series with Leptochloa chinensis, the “D (herbicidal effect grade)” value is 4 (Herbicidal ratio of 70% or more and less than 90%). The “E (herbicidal effect grade)” value with Cyperus difformis is 4 (Herbicidal ratio of 70% or more and less than 90%). The “A: Echinochloa oryzicola Vasing. (herbicidal effect grade)” value in series [2] was 3 (Herbicidal ratio of 40% or more and less than 70%). Further, the “B: Scirpus juncoides” value in the series with Scirpus juncoides was 2 (Herbicidal ratio of 20% or more and less than 40%). Besides, in the series on Monochoria vaginalis, the “C: Monochoria vaginalis” value was 1 (Herbicidal ratio of 5% or more and less than 20%).
Turning to `Cn1nnnc1NC(=O)c1ccc(C(F)(F)F)n2c(C(C)(C)C)nnc12` [2-027], the “H (herbicidal effect grade)” value in series [1] was 5 (Herbicidal ratio of 90% or more (almost completely withered)). Besides, the “D (herbicidal effect grade)” value in the series with Leptochloa chinensis is recorded as 5 (Herbicidal ratio of 90% or more (almost completely withered)). The “E (herbicidal effect grade)” value in the series on Cyperus difformis is reported as 5 (Herbicidal ratio of 90% or more (almost completely withered)). For the same compound, the “A: Echinochloa oryzicola Vasing. (herbicidal effect grade)” value in series [2] is listed as 5 (Herbicidal ratio of 90% or more (almost completely withered)). For the same compound, the “B: Scirpus juncoides” value in the series with Scirpus juncoides is on record as 5 (Herbicidal ratio of 90% or more (almost completely withered)). Also, the “C: Monochoria vaginalis” value in the series on Monochoria vaginalis is given as 5 (Herbicidal ratio of 90% or more (almost completely withered)).
`CCCc1nnc2c(C(=O)Nc3nnnn3C)ccc(C(F)(F)F)n12` [2-019]: the “H (herbicidal effect grade)” value in series [1] is listed as 5 (Herbicidal ratio of 90% or more (almost completely withered)). The “D (herbicidal effect grade)” value in the series with Leptochloa chinensis is reported as 5 (Herbicidal ratio of 90% or more (almost completely withered)). In the series with Cyperus difformis, the “E (herbicidal effect grade)” value is 5 (Herbicidal ratio of 90% or more (almost completely withered)). In series [2], the “A: Echinochloa oryzicola Vasing. (herbicidal effect grade)” value was 5 (Herbicidal ratio of 90% or more (almost completely withered)). Also, in the series with Scirpus juncoides, the “B: Scirpus juncoides” value is given as 5 (Herbicidal ratio of 90% or more (almost completely withered)). In addition, the “C: Monochoria vaginalis” value in the series with Monochoria vaginalis was 4 (Herbicidal ratio of 70% or more and less than 90%).

A word on the melting point: it is the temperature of the solid-liquid transition.
